One may read the IC50 as the concentration needed to halve the response being measured. A word on the EC50: it is the concentration that produces a half-maximal response. A word on the GI50: it is the concentration that inhibits growth by half.

Active and inactive are the calls of the source. Rule as the data show it, for most assays here: active = GI50 up to about 1.1 µM and inactive = higher.

Holding throughout (format): functional
For one experiment, the target named is T1, Protein skinhead-1 (Caenorhabditis elegans, UniProt P34707).
T1 sequence (P34707 whole entry): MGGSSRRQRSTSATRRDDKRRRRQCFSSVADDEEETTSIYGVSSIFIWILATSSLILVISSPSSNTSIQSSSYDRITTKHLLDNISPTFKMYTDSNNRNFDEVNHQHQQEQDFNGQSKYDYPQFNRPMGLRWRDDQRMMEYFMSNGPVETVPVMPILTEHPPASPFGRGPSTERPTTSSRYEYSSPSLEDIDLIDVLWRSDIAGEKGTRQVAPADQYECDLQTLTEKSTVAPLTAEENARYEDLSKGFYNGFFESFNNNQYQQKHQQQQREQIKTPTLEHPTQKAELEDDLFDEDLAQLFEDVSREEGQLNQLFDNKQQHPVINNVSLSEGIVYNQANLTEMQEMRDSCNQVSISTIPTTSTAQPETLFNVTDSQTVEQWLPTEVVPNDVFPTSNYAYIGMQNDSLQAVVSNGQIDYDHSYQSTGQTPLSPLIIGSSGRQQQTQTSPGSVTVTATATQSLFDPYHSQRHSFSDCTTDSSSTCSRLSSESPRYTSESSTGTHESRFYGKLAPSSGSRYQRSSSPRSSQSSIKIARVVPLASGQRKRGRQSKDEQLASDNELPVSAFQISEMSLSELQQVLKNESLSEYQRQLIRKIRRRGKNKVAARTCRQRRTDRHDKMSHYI

The target of experiment [1] is T2, Heat shock factor protein 1 (Mus musculus, UniProt P38532).
T2 sequence (P38532 whole entry): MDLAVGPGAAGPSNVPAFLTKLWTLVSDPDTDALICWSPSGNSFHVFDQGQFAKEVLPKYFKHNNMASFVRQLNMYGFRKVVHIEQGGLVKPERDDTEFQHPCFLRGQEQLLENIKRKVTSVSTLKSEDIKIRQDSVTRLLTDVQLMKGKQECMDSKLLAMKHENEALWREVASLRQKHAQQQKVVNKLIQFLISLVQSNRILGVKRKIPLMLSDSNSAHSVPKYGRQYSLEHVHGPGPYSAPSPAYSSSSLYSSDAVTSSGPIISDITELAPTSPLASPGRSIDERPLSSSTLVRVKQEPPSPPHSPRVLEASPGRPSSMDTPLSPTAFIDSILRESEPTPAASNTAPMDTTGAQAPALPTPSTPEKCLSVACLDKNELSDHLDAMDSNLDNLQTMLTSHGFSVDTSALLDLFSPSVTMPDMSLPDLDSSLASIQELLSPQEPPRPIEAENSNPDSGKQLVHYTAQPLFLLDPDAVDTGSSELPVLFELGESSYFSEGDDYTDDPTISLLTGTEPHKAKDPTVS
The experiment in a line: decrease of HSF1-responsive luciferase luminescence – cell-based, NIH3T3, dose retest, confirmation (AID 2382).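 Also: NIH3T3 fibroblasts with HSF1-driven luciferase reporter stressed by proteasome inhibitor MG132; luminescence from HSF1-driven luciferase expression after 8 hours of MG132 stress.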

In another experiment the test system is P388/ADR. The experiment is described as follows: cells. The conditions noted are these: Mus musculus.
The next experiment relates to P388. The experiment is described as follows: cells. The settings on record: Mus musculus.
Another experiment relates to SN12K1. The experiment is described as follows: cells. The conditions noted are these: Homo sapiens.

`O=[N+]([O-])c1ccc(N2CCCC2)c2ccncc12`: the IC50 on Protein skinhead-1 was > 100 µM (inactive). In experiment [1], the EC50 was 31.2 µM (active).
Take `O=C(c1cc(COc2ccc(F)cc2Cl)on1)N1CCCCCC1`: the IC50 on Protein skinhead-1 is > 100 µM (inactive).
Consider `COc1cccc(-c2cccc(NC(=O)C3CCN(CC4CCOC4)CC3)c2)c1` (centres undefined), for which, at Protein skinhead-1, the IC50 is > 100 µM (inactive).
For the compound `CCCC(C)C(=O)NCc1ccccc1OC` (centres undefined), the IC50 on Protein skinhead-1 is > 100 µM (inactive).
For the compound `O=S1(=O)C=C(Oc2ccc3ccccc3c2)c2ccccc21`, the IC50 at Protein skinhead-1 was > 100 µM (inactive).
Turning to `Cc1ccc2c(c1)c(C)c(C)n2CC(O)CN1CCOCC1` (centres undefined), the IC50 on Protein skinhead-1 is > 100 µM (inactive).
The same measure, in the same setting: with `CCOC(=O)CSc1nc2ccccc2c(=O)n1CCN1CCOCC1` the figure was > 100 µM (inactive); with `Cc1cc(O)c(C(C)C)cc1NC(=O)Nc1ccc([N+](=O)[O-])cc1`, 68.4 µM (inactive); with `Cc1cccc(C(=O)N(Cc2cccs2)C2CCS(=O)(=O)C2)c1` (centres undefined), > 100 µM (inactive).
Regarding `Nc1ccc2c(Cl)cc(Cl)cc2c1`, the IC50 at Protein skinhead-1 was 22.7 µM (active).
With `CN(C)CCNC(=O)c1cc(Cl)cc2cc3ccccc3nc12`, the GI50 was 0.0622 µM (active) in the experiment on P388/ADR, 0.128 µM (active) in the experiment with P388 and 0.378 µM (active) with SN12K1.
For `CCOC(=O)/C=C/c1c[nH]c(C(=O)OCC)c1` the same measures were > 100 µM (inactive), > 100 µM (inactive) and > 100 µM (inactive).
Take `C=C1C[C@@H](O)C[C@@]2(C)C[C@@H]3OC(=O)C(=C)[C@@H]3C[C@H]12`: the GI50 with P388/ADR is 2.2 µM (inactive); in the experiment on P388, 2.46 µM (inactive); in the experiment on SN12K1, 12.3 µM (inactive).
On the same counts, the results for `COC(=O)C1C(O)C(C)C(O)C(C)(O)/C=C\C=C(C)C(=O)Nc2c(C)c(OC(C)=O)c3c(c2O)C(=O)C(C)=C2OCOC(=C23)C(C)=CC(C)(O)C(O)C(C)C1OC(C)=O` (centres undefined) are 41.5 µM (inactive), 30.3 µM (inactive) and 37 µM (inactive).
For `CCOC(=O)CNC(=O)NC12CC3CC(CC(C3)C1)C2` the same measures were 225 µM (inactive), 63.8 µM (inactive) and 141 µM (inactive).
In the case of `CCCCCCSc1nc(N)nc2nc[nH]c12`, the GI50 is 12.7 µM (inactive) with P388/ADR, > 40.8 µM (inactive) in the experiment with P388 and 38.7 µM (inactive) in the experiment on SN12K1.
For `c1ccc2c(c1)SCCc1cn[nH]c1-2`, the GI50 with P388/ADR, in the experiment with P388 and in the experiment on SN12K1 was > 100 µM (inactive) each time.
As for `CC(=O)OCC1OC(Nc2ncc(-c3ccc(C)cc3)s2)C(OC(C)=O)C(OC(C)=O)C1OC(C)=O` (centres undefined), the GI50 in the experiment with P388/ADR was 25.2 µM (inactive); with P388 it was 28.4 µM (inactive); with SN12K1, 46.8 µM (inactive).
For `CN(C)CCOc1cc2c(c3ccccc13)-c1ccccc1C2=O` the same measures were 0.36 µM (active), 0.0435 µM (active) and 0.589 µM (active).
On the same counts, the results for `Cc1cc(O)c2c(c1O)C(=O)C13C(=C(O)C4C(O)C1C1C(O)C3C(O)=C3C(=O)c5c(O)cc(C)c(O)c5C(=O)C341)C2=O` (centres undefined) are 0.0461 µM (active), < 0.01 µM (active) and 0.0506 µM (active).
Regarding `C[S+](C)CC1OC(n2cnc3c(N)ncnc32)C(O)C1O` (centres undefined), the values for the GI50 in the experiment with P388/ADR, in the experiment on P388 and with SN12K1 were > 22.5 µM (inactive), > 225 µM (inactive) and > 225 µM (inactive), respectively.

(Values after ChEMBL document CHEMBL1201862, “PubChem BioAssay data set” (2004).)
